Source: patent publication US4988697A, “Fungicidal compositions and method” (Merck & Co., Inc., priority 1989, dated 1991)
Values after ≈ are worked out from the molar mass of the structure shown.

How the values were obtained:
Format in all cases: cell-based
[1] = system: Candida albicans; assay: Synergistic and fungicidal effect on exponential phase cultures (CFU/ml over time); settings: ketoconazole 1 μg/ml
Experimental: Synergistic and fungicidal effects were determined by treating exponential phase Candida albicans cultures with β-Lactone at MIC and MFC levels and ketoconazole at 0.1 μg/ml or a 1 μg/ml alone or in combination. Exponential phase cultures were prepared by diluting an overnight culture 1:50 or 1:1000 in YNB/G. After incubating the diluted cells 7 or 17 hrs. at 37° C., the exponential phase cells were diluted in YNB/G to A600 =0.0004 u/ml to obtain 3000 cfu/ml.
10 microliters (μl) of β-lactone compound or ketoconazole prepared in DMSO was added to 1 ml of diluted exponential phase cells. The tubes were incubated at 37° C. at 250 rpm for 27 hours. Periodically, aliquots were diluted in 0.9% saline and plated on Sabouraud dextrose agar plates to determine the number of cfu/ml.

[2] = system: F. oxysporium; assay: MIC against fungal panel, F. oxysporium
Experimental: (§1) First the MIC for the β-lactone compound and the MIC for the ketoconazole were determined against an array of organisms. Thereafter, the effects on the MIC of adding 0.031, 0.125, 0.5 and 2 μg/ml of ketoconazole were determined.

[3] = system: A. niger; assay: MIC against fungal panel, A. niger
Experimental: as §1

[4] = system: C. neoformans; assay: MIC against fungal panel, C. neoformans
Experimental: as §1

[5] = system: U. zeae; assay: MIC against fungal panel, U. zeae
Experimental: as §1

[6] = system: C. albicans (Y1055); assay: MIC against fungal panel, C. albicans (Y1055)
Experimental: as §1

[7] = system: C. albicans (Y1750); assay: MIC against fungal panel, C. albicans (Y1750)
Experimental: as §1

[8] = system: C. miyabeamis; assay: MIC against fungal panel, C. miyabeamis
Experimental: In a manner similar to that above described for effect against Candida albicans the synergistic effect of the combination of the β-lactone compound and ketoconazole against a fungal panel was determined by plating on potato dextrose agar.
as §1

[9] = system: Candida albicans MY 1055; assay: Minimum Fungicidal Concentration, plating of MIC tubes; settings: MY1055, ≥95% reduction of viable cells, 37° C., 17 hours
Experimental: In the manner above described for the determination of minimum inhibitory concentration, broth dilution assay tubes were prepared ranging from 0.625 to 100 μg/ml and 1 milliliter of YNB/G inoculated with Candida albicans MY 1055 sterile test tubes. The tubes were incubated at 250 rpm at 37° C. for 17 hours. The minimum fungicidal concentration (MFC) was determined by serially diluting samples of MIC tubes in 0.9% saline. Aliquots were plated on Sabouraud dextrose agar. The plates were incubated at 37° for 48 hr. and the colonies counted. From the counts obtained, the number of cfu/ml in the undiluted drug-culture tube was calculated. The MFC is defined as the minimum amount of drug required to reduce the number of viable cells initially present in the drug-culture tubes greater than or equal to 95%. The MFC was 10 μg/ml.

[10] = system: Candida albicans MY 1055; assay: Minimum Inhibitory Concentration, broth dilution; settings: MY1055, YNB/G, 37° C., 17 hr
Experimental: 11-(3-hydroxymethyl-4-oxo-2-oxetanyl)-7-methyl-2,4-undecadienoic acid (β-lactone compound), was solubilized in 100 percent dimethylsulfoxide (DMSO). Twofold dilutions were made with DMSO to obtain final drug concentrations in the broth dilution assay tubes ranging from 0.625 to 100 μg/ml.
The Candida albicans, MY 1055, yeast culture maintained in yeast nitrogen base/glucose (1/2 percent), YNB/G, was transferred to fresh medium and incubated 7 hours at 37° with shaking at 250 rpm. After incubation, each culture was diluted to A600 =0.0004 U/ml which was previously determined to be equal to 3000 cfu/ml (colony forming units per milliliter).
1 milliliter of YNB/G inoculated with yeast culture was added to sterile test tubes. The tubes were incubated at 250 rpm, 37° C. for 17 hr. The minimum inhibitory concentrations (MIC) was recorded as the lowest concentration of drug […].

[11] = system: Candida albicans MY 1055; assay: Effect of Azole Antifungals on the MIC'S of the β-Lactone Compound
Excerpt: The β-lactone compound and the following conazole compounds: cis-1-acetyl-4-[4-[[2-(2,4-dichlorophenyl)-2-1H-imidazole-1-ylmethyl)-1,3- dioxolan-4-yl]-methoxyl]phenyl]piperazine (ketoconazole), α-(2,4-difluorophenyl)-α-(1H-1,4-triazol-1-ylmethyl)1H-1,2-4-triazole-1-ethanol (fluconazole and cis-4-[4-[4-[4-[[2-(2,4-dichlorophenyl)-2-(1H-1,2,4-triazole-1-ylmethyl)-1,3-dioxolan-4-yl]-methoxy] phenyl]-1-piperazinyl]phenyl-2,4-dihydro-2-(1-methylpropyl)-3H-1,2,4-triazol-3-one (itraconazole), were dissolved in DMSO and serially diluted in the manner previously described.
Assay tubes were prepared in a manner similar to that previously described and in operations carried out in a manner similar to that previously described, the effect of various conazole compounds on the MIC of the β-lactone compound were determined.

[12] = Table 1, 2 hours, β-lactone 2.5 μg/ml, alone or combined
[13] = Table 1, 4.5 hours, β-lactone 2.5 μg/ml, alone or combined
[14] = Table 1, 7 hours, β-lactone 2.5 μg/ml, alone or combined
[15] = Table 1, 11 hours, β-lactone 2.5 μg/ml, alone or combined
[16] = Table 1, 17 hours, β-lactone 2.5 μg/ml, alone or combined
[17] = Table 1, 22 hours, β-lactone 2.5 μg/ml, alone or combined
[18] = Table 1, 27 hours, β-lactone 2.5 μg/ml, alone or combined
[19] = Table 2, 2 hours, β-lactone 10 μg/ml, alone or combined
[20] = Table 2, 4.5 hours, β-lactone 10 μg/ml, alone or combined
[21] = Table 2, 7 hours, β-lactone 10 μg/ml, alone or combined
[22] = Table 2, 11 hours, β-lactone 10 μg/ml, alone or combined
[23] = Table 2, 17 hours, β-lactone 10 μg/ml, alone or combined
[24] = Table 2, 22 hours, β-lactone 10 μg/ml, alone or combined
[25] = Table 2, 27 hours, β-lactone 10 μg/ml, alone or combined
[26] = read-out: MIC, Ketoconazole Alone
[27] = Candida albicans, read-out: MIC, Ketoconazole Alone

Structure (SMILES): CC(=O)N1CCN(c2ccc(OC[C@H]3CO[C@](Cn4ccnc4)(c4ccc(Cl)cc4Cl)O3)cc2)CC1 (relative stereo) [Ketoconazole, cis-1-acetyl-4-[4-[[2-(2,4-dichlorophenyl)-2-(1H-imidazole-1-ylmethyl)-1,3-dioxolan-4-yl]methoxy]-phenyl]piperazine]
- Fungal Growth ([1]; Table 1, 0 hours): 2.95 × 10^3 CFU/ML
- Fungal Growth [1, 12]: 5.1 × 10^3 CFU/ML
- Fungal Growth [1, 13]: 1.09 × 10^4 CFU/ML
- Fungal Growth [1, 14]: 2.40 × 10^4 CFU/ML
- Fungal Growth [1, 15]: 6.90 × 10^4 CFU/ML
- Fungal Growth [1, 16]: 1.36 × 10^5 CFU/ML
- Fungal Growth [1, 17]: 3.30 × 10^5 CFU/ML
- Fungal Growth [1, 18]: 7.20 × 10^5 CFU/ML
- Fungal Growth ([1]; Table 2, 0 hours): 2.95 × 10^3 CFU/ML
- Fungal Growth [1, 19]: 5.1 × 10^3 CFU/ML
- Fungal Growth [1, 20]: 1.09 × 10^4 CFU/ML
- Fungal Growth [1, 21]: 2.40 × 10^4 CFU/ML
- Fungal Growth [1, 22]: 6.90 × 10^4 CFU/ML
- Fungal Growth [1, 23]: 1.36 × 10^5 CFU/ML
- Fungal Growth [1, 24]: 3.30 × 10^5 CFU/ML
- Fungal Growth [1, 25]: 7.20 × 10^5 CFU/ML
- MIC [2, 26]: > 2 mg/L
- MIC ([3]; Aspergillus niger, read-out: MIC, Ketoconazole Alone): > 2 mg/L
- MIC ([4]; Cryptococcus neoformans, read-out: MIC, Ketoconazole Alone): > 2 mg/L
- MIC [5, 26]: > 2 mg/L
- MIC [6, 27]: > 2 mg/L
- MIC [7, 27]: > 2 mg/L
- MIC [8, 26]: 2 mg/L

Structure (SMILES): CC(=CC(=O)O)C=C(C)CC(C)CCCCC1OC(=O)C1CO (stereo not drawn) [β-Lactone Compound]
- Fungal Growth [1, 12]: 3.85 × 10^3 CFU/ML
- Fungal Growth [1, 13]: 8.80 × 10^3 CFU/ML
- Fungal Growth [1, 14]: 1.12 × 10^4 CFU/ML
- Fungal Growth [1, 15]: 1.28 × 10^4 CFU/ML
- Fungal Growth [1, 16]: 9.35 × 10^3 CFU/ML
- Fungal Growth [1, 17]: 1.23 × 10^4 CFU/ML
- Fungal Growth [1, 18]: 1.80 × 10^4 CFU/ML
- Fungal Growth [1, 19]: 6.50 × 10^3 CFU/ML
- Fungal Growth [1, 20]: 7.50 × 10^3 CFU/ML
- Fungal Growth [1, 21]: 3.35 × 10^3 CFU/ML
- Fungal Growth [1, 22]: 8.70 × 10^2 CFU/ML
- Fungal Growth [1, 23]: 5.00 × 10^1 CFU/ML
- Fungal Growth [1, 24]: 6.50 × 10^1 CFU/ML
- Fungal Growth [1, 25]: 7.50 × 10^1 CFU/ML
- MFC [9]: 10 mg/L (≈ 30.8 µM)
- MIC, β-Lactone Compound in Presence of Ketoconazole ([2]; ketoconazole 0 μg/ml): > 50 mg/L
- MIC, β-Lactone Compound in Presence of Ketoconazole ([2]; ketoconazole 0.031 μg/ml): > 50 mg/L
- MIC, β-Lactone Compound in Presence of Ketoconazole ([2]; ketoconazole 0.123 μg/ml): > 50 mg/L
- MIC, β-Lactone Compound in Presence of Ketoconazole ([2]; ketoconazole 0.5 μg/ml): > 50 mg/L
- MIC, β-Lactone Compound in Presence of Ketoconazole ([2]; ketoconazole 2 μg/ml): > 50 mg/L
- MIC, β-Lactone Compound in Presence of Ketoconazole ([3]; ketoconazole 0 μg/ml): > 50 mg/L
- MIC, β-Lactone Compound in Presence of Ketoconazole ([3]; ketoconazole 0.031 μg/ml): > 50 mg/L
- MIC, β-Lactone Compound in Presence of Ketoconazole ([3]; ketoconazole 0.123 μg/ml): > 50 mg/L
- MIC, β-Lactone Compound in Presence of Ketoconazole ([3]; ketoconazole 0.5 μg/ml): > 50 mg/L
- MIC, β-Lactone Compound in Presence of Ketoconazole ([3]; ketoconazole 2 μg/ml): > 50 mg/L
- MIC, β-Lactone Compound in Presence of Ketoconazole ([4]; ketoconazole 0 μg/ml): 12.5 mg/L
- MIC, β-Lactone Compound in Presence of Ketoconazole ([4]; ketoconazole 0.031 μg/ml): 12.5 mg/L
- MIC, β-Lactone Compound in Presence of Ketoconazole ([4]; ketoconazole 0.123 μg/ml): 3.125 mg/L
- MIC, β-Lactone Compound in Presence of Ketoconazole ([4]; ketoconazole 0.5 μg/ml): 0.19 mg/L
- MIC, β-Lactone Compound in Presence of Ketoconazole ([4]; ketoconazole 2 μg/ml): 0.19 mg/L
- MIC, β-Lactone Compound in Presence of Ketoconazole ([5]; ketoconazole 0 μg/ml): 3.125 mg/L
- MIC, β-Lactone Compound in Presence of Ketoconazole ([5]; ketoconazole 0.031 μg/ml): 3.125 mg/L
- MIC, β-Lactone Compound in Presence of Ketoconazole ([5]; ketoconazole 0.123 μg/ml): 0.78 mg/L
- MIC, β-Lactone Compound in Presence of Ketoconazole ([5]; ketoconazole 0.5 μg/ml): 0.19 mg/L
- MIC, β-Lactone Compound in Presence of Ketoconazole ([5]; ketoconazole 2 μg/ml): 0.19 mg/L
- MIC, β-Lactone Compound in Presence of Ketoconazole ([6]; ketoconazole 0 μg/ml): 3.125 mg/L
- MIC, β-Lactone Compound in Presence of Ketoconazole ([6]; ketoconazole 0.031 μg/ml): 0.78 mg/L
- MIC, β-Lactone Compound in Presence of Ketoconazole ([6]; ketoconazole 0.123 μg/ml): 0.78 mg/L
- MIC, β-Lactone Compound in Presence of Ketoconazole ([6]; ketoconazole 0.5 μg/ml): 0.19 mg/L
- MIC, β-Lactone Compound in Presence of Ketoconazole ([6]; ketoconazole 2 μg/ml): 0.19 mg/L
- MIC [10]: 2.5 mg/L (≈ 7.71 µM)
- MIC, β-Lactone Compound in Presence of Ketoconazole ([7]; ketoconazole 0 μg/ml): 3.125 mg/L
- MIC, β-Lactone Compound in Presence of Ketoconazole ([7]; ketoconazole 0.031 μg/ml): 0.78 mg/L
- MIC, β-Lactone Compound in Presence of Ketoconazole ([7]; ketoconazole 0.123 μg/ml): 0.195 mg/L
- MIC, β-Lactone Compound in Presence of Ketoconazole ([7]; ketoconazole 0.5 μg/ml): 0.19 mg/L
- MIC, β-Lactone Compound in Presence of Ketoconazole ([7]; ketoconazole 2 μg/ml): 0.19 mg/L
- MIC, β-Lactone Compound in Presence of Ketoconazole ([8]; ketoconazole 0 μg/ml): 0.78 mg/L
- MIC, β-Lactone Compound in Presence of Ketoconazole ([8]; ketoconazole 0.031 μg/ml): 0.39 mg/L
- MIC, β-Lactone Compound in Presence of Ketoconazole ([8]; ketoconazole 0.123 μg/ml): 0.78 mg/L
- MIC, β-Lactone Compound in Presence of Ketoconazole ([8]; ketoconazole 2 μg/ml): N.G.
- MIC of β-lactone compound ([11]; fluconazole 0 μg/ml): 2.5 mg/L
- MIC of β-lactone compound ([11]; itraconazole 0 μg/ml): 2.5 mg/L
- MIC of β-lactone compound ([11]; ketoconazole 0 μg/ml): 2.5 mg/L
- MIC of β-lactone compound ([11]; with fluconazole 0.3125 μg/ml): 1.25 mg/L
- MIC of β-lactone compound ([11]; with fluconazole 1.25 μg/ml): 0.625 mg/L
- MIC of β-lactone compound ([11]; with fluconazole 5.0 μg/ml): 0.625 mg/L
- MIC of β-lactone compound ([11]; with itraconazole 0.3125 μg/ml): 2.5 mg/L
- MIC of β-lactone compound ([11]; with itraconazole 1.25 μg/ml): 1.25 mg/L
- MIC of β-lactone compound ([11]; with itraconazole 5.0 μg/ml): 1.25 mg/L
- MIC of β-lactone compound ([11]; with ketoconazole 0.3125 μg/ml): 0.625 mg/L
- MIC of β-lactone compound ([11]; with ketoconazole 1.25 μg/ml): 0.625 mg/L
- MIC of β-lactone compound ([11]; with ketoconazole 5.0 μg/ml): 0.625 mg/L
